In experiment [1] the target is T1, Human Recombinant Glucocorticoid Receptor (Homo sapiens, UniProt P04150).
T1 construct: This GR was a full-length steroid hormone receptor likely to be associated with heat-shock and other endogenous proteins; host or cells: baculovirus-infected insect cells
T1 sequence (P04150 1-777): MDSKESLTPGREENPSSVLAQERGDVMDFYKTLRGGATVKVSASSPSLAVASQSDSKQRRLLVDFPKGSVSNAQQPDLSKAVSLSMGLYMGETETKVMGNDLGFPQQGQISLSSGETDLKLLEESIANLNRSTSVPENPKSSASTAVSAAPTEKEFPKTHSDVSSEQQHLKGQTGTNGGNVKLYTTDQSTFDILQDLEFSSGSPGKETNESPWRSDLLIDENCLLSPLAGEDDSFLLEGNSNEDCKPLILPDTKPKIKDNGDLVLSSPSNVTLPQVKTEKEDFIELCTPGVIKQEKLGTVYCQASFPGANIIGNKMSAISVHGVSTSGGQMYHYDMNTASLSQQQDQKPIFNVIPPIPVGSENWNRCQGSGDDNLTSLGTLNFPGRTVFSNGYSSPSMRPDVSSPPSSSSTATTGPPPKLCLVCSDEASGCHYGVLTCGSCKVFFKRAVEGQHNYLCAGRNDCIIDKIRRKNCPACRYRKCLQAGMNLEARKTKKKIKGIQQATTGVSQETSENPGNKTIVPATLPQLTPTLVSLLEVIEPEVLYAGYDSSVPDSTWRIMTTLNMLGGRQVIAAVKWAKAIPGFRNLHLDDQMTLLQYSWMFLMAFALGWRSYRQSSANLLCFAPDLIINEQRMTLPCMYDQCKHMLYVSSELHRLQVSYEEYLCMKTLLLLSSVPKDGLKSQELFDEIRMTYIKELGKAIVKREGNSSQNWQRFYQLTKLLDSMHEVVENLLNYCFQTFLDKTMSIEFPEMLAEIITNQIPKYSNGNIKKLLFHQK
Kind of experiment: Glucocorticoid receptor binding displacement assay with 3H-dexamethasone. As to conditions: displacement of 2.5 nM 3H-dexamethasone; Ki from IC50 by Cheng-Prusoff; read-out: GR Binding Ki. How it is done:
The source of the receptor was recombinant baculovirus-infected insect cells. This GR was a full-length steroid hormone receptor likely to be associated with heat-shock and other endogenous proteins.
For the Primary Screen, test compounds were tested at 1 μM in duplicate. These compounds were diluted from 10 mM stock in 100% DMSO. After dilution to 100 μM, 5 μl were added to 245 μl assay buffer to obtained 2 μM compound and 2% DMSO.
For the IC50 determinations, test compounds were tested at 6 concentrations in duplicate (concentration range depends on % inhibition binding that was obtained in the Primary Screen). Test compounds were diluted from 10 mM stock in 100% DMSO. The tested solutions were prepared at 2× final assay concentration in 2% DMSO/assay buffer.
All reagents and the assay plate were kept on ice during the addition of reagents. […] After the additions, the incubation mixture was mixed and incubated for 2.5 hrs at 4° C.
After 2.5 hrs incubation, unbound counts were removed with dextran coated charcoal (DCC) as follows: 25 μl of DCC solution (10% DCC in assay buffer) was added to all wells and mixed (total volume 225 μl). The plate was centrifuged at 4000 rpm for 10 minutes at 4° C. 75 μl of the supernatants (i.e.⅓ of total volume) was carefully pipetted into an optiplate. 200 μl of scintillation cocktail were added (Microscint-40, Packard Bioscience. B.V.). The plate was vigorously shaken for approx. 10 minutes and counted on Topcount.
The IC50 values were converted to Ki (the inhibition constant) using the Cheng-Prusoff equation. Test results are presented in Tablel.
Reagents: Assay buffer: 10 mM potassium phosphate buffer pH 7.6 containing 5 mM DTT, 10 mM sodium molybdate, 100 μM EDTA and 0.1% BSA.

Experiment [2] has as its target T2, glucocorticoid receptors (GR) in SW1353/MMTV-5 cells (Homo sapiens, UniProt P04150).
T2 construct: contains endogenous glucocorticoid receptors; endogenous in cells; host or cells: SW1353/MMTV-5 (human chondrosarcoma, stably transfected with the pMAMneo-Luc reporter only)
T2 sequence (P04150 1-777): T1 sequence (P04150 1-777)
Kind of experiment: GR functional assay using SW1353/MMTV-5 cells (MMTV-luciferase reporter). Format: cell-based. How it is done: SW1353/MMTV-5 is an adherent human chondrosarcoma cell line that contains endogenous glucocorticoid receptors. It was transfected with a plasmid (pMAMneo-Luc) encoding firefly luciferase located behind a glucocorticoid-responsive element (GRE) derived from a viral promoter (long terminal repeat of mouse mammary tumor virus). A stable cell line SW1353/MMTV-5 was selected with geneticin, which was required to maintain this plasmid.
SW1353/MMTV-5 cells were distributed in 96-well plates and incubated in medium (without geneticin) for 24 hrs (in the absence of CO2).
(A reporter such as luciferase makes a cellular process visible.)

A value given as a limit tells only on which side of the number the result lay.

As a reminder, the Ki is the dissociation constant of the complex between target and ligand, obtained from inhibition or displacement.

As to `COCCOC[C@]12Cc3cnn(-c4ccc(F)cc4)c3C=C1CCN(S(=O)(=O)c1ccc(N3CC[C@@H](F)C3)nc1)C2` [Example 33, (R)-1-(4-Fluorophenyl)-6-[6-((R)-3-fluoropyrrolidin-1-yl)-pyridine-3-sulfonyl]-4a-(2-methoxyethoxymethyl)-4,4a,5,6,7,8-hexahydro-1H-1,2,6-triaza-cyclopenta[b]naphthalene], the results for the Ki in experiment [1] and in experiment [2] were 0.5 to 1 nM and below 10 nM, respectively.
As for `O=S(=O)(c1ccc(N2CC[C@@H](F)C2)nc1)N1CCC2=Cc3c(cnn3-c3ccc(F)cc3)C[C@]2(COCCO)C1` [Example 34, 2-{(R)-1-(4-Fluorophenyl)-6-[6-((R)-3-fluoropyrrolidin-1-yl)-pyridine-3-sulphonyl]-1,4,5,6,7,8-hexahydro-1,2,6-triaza-cyclopenta[b]naphthalene-4a-ylmethoxy}-ethanol], the figures for the Ki in experiment [1] and in experiment [2] were above 1 nM and above 50 nM, respectively.
For `Cc1cc(COC[C@]23Cc4cnn(-c5ccc(F)cc5)c4C=C2CCN(S(=O)(=O)c2ccc(N4CC[C@@H](F)C4)nc2)C3)no1` [Example 35, (R)-1-(4-Fluorophenyl)-6-[6-((R)-3-fluoropyrrolidin-1-yl)-pyridine-3-sulfonyl]-4a-(5-methyl-isoxazol-3-ylmethoxymethyl)-4,4a,5,6,7,8-hexahydro-1H-1,2,6-triaza-cyclopenta[b]naphthalene], the inhibition constant (Ki) was above 1 nM in experiment [1] and 10 to 50 nM in experiment [2].
As to `COC[C@]12Cc3cnn(-c4ccc(F)cc4)c3C=C1CCN(S(=O)(=O)c1cncc(N3CC(O)C3)c1)C2` [Example 36, 1-{5-[(R)-1-(4-Fluorophenyl)-4a-methoxymethyl-1,4,4a,5,6,7,8-hexahydro-1,2,6-triaza-cyclopenta[b]naphthalene-6-sulfonyl]-pyridin-3-yl}-azetidin-3-ol], the Ki in experiment [1] was 0.5 to 1 nM; in experiment [2], above 50 nM.
As to `COC[C@]12Cc3cnn(-c4ccc(F)cc4)c3C=C1CCN(S(=O)(=O)c1cncc(N3CC(F)C3)c1)C2` [Example 37, (R)-6-[5-(3-Fluoroazetidin-1-yl)-pyridine-3-sulfonyl]-1-(4-fluorophenyl)-4a-methoxymethyl-4,4a,5,6,7,8-hexahydro-1H-1,2,6-triaza-cyclopenta[b]naphthalene], the Ki was 0.5 to 1 nM in experiment [1] and below 10 nM in experiment [2].
Regarding `COC[C@]12Cc3cnn(-c4ccc(F)cc4)c3C=C1CCN(S(=O)(=O)c1cncc(N3CC[C@@H](O)C3)c1)C2` [Example 38, (R)-1-{5-[(R)-1-(4-Fluorophenyl)-4a-methoxymethyl-1,4,4a,5,6,7,8-hexahydro-1,2,6-triaza-cyclopenta[b]naphthalene-6-sulfonyl]pyridine-3-yl}-pyrrolidine-3-ol], the results for the Ki in experiment [1] and in experiment [2] were 0.5 to 1 nM and 10 to 50 nM, respectively.
As to `COC[C@]12Cc3cnn(-c4ccc(F)cc4)c3C=C1CCN(S(=O)(=O)c1cncc(N3CC[C@H](O)C3)c1)C2` [Example 39, (S)-1-{5-[(R)-1-(4-Fluorophenyl)-4a-methoxymethyl-1,4,4a,5,6,7,8-hexahydro-1,2,6-triaza-cyclopenta[b]naphthalene-6-sulfonyl]pyridine-3-yl}-pyrrolidine-3-ol], the figures for the Ki in experiment [1] and in experiment [2] were 0.5 to 1 nM and above 50 nM, respectively.
For `COC[C@]12Cc3cnn(-c4ccc(F)cc4)c3C=C1CCN(S(=O)(=O)c1cncc(N3CC[C@@H](F)C3)c1)C2` [Example 40, (R)-1-(4-Fluorophenyl)-6-[5-((R)-3-fluoropyrrolidin-1-yl)-pyridine-3-sulfonyl]-4a-methoxymethyl-4,4a,5,6,7,8-hexahydro-1H-1,2,6-triaza-cyclopenta[b]naphthalene], in that order: above 1 nM and below 10 nM.
Regarding `COC[C@]12Cc3cnn(-c4ccc(F)cc4)c3C=C1CCN(S(=O)(=O)c1cncc(N3CC[C@H](F)C3)c1)C2` [Example 41, (R)-1-(4-Fluorophenyl)-6-[5-((S)-3-fluoropyrrolidin-1-yl)-pyridine-3-sulfonyl]-4a-methoxymethyl-4,4a,5,6,7,8-hexahydro-1H-1,2,6-triaza-cyclopenta[b]naphthalene], the Ki in experiment [1] was 0.5 to 1 nM; in experiment [2], below 10 nM.
For the compound `COC[C@]12Cc3cnn(-c4ccc(F)cc4)c3C=C1CCN(S(=O)(=O)c1ccnc(N3CCCC3)c1)C2` [Example 42, (R)-1-(4-Fluorophenyl)-4a-methoxymethyl-6-(2-pyrrolidin-1-yl-pyridine-4-sulfonyl)-4,4a,5,6,7,8-hexahydro-1H-1,2,6-triaza-cyclopenta[b]naphthalene], the Ki in experiment [1] was above 1 nM; in experiment [2], below 10 nM.
The matching figures for `COC[C@]12Cc3cnn(-c4ccc(F)cc4)c3C=C1CCN(S(=O)(=O)c1ccnc(N3CC[C@@H](O)C3)c1)C2` [Example 43, (R)-1-{4-[(R)-1-(4-Fluorophenyl)-4a-methoxymethyl-1,4,4a,5,6,7,8-hexahydro-1,2,6-triaza-cyclopenta[b]naphthalene-6-sulfonyl]-pyridin-2-yl}-pyrrolidin-3-ol]: above 1 nM and above 50 nM.
Take `COC[C@]12Cc3cnn(-c4ccc(F)cc4)c3C=C1CCN(S(=O)(=O)c1ccnc(N3CC[C@H](O)C3)c1)C2` [Example 44, (S)-1-{4-[(R)-1-(4-Fluorophenyl)-4a-methoxymethyl-1,4,4a,5,6,7,8-hexahydro-1,2,6-triaza-cyclopenta[b]naphthalene-6-sulfonyl]-pyridin-2-yl}-pyrrolidin-3-ol]: the Ki in experiment [1] was above 1 nM; in experiment [2], above 50 nM.
For the compound `CN(CCO)C[C@]12Cc3cnn(-c4ccc(F)cc4)c3C=C1CCN(S(=O)(=O)c1ccc(N3CCOCC3)nc1)C2` [Example 45, 2-{[(S)-1-(4-Fluorophenyl)-6-[6-morpholin-4-yl-pyridine-3-sulfonyl)-1,4,5,6,7,8-hexahydro-1,2,6-triaza-cyclopenta[b]naphthalene-4a-ylmethyl]-methyl-amino}-ethanol], the inhibition constant Ki in experiment [1] was above 1 nM; in experiment [2], 10 to 50 nM.
Consider `O=S(=O)(c1ccc(N2CC[C@@H](F)C2)nc1)N1CCC2=Cc3c(cnn3-c3ccc(F)cc3)C[C@]2(CN2CC[C@H](O)C2)C1` [Example 47, (S)-1-{(S)-1-(4-Fluorophenyl)-6-[6-((R)-3-fluoro-pyrrolidin-1-yl)-pyridine-3-sulfonyl]-1,4,5,6,7,8-hexahydro-1,2,6-triaza-cyclopenta[b]naphthalene-4a-ylmethyl}-pyrrolidin-3-ol], for which the inhibition constant (Ki) in experiment [1] is above 1 nM; in experiment [2] it was above 50 nM.
Take `CCOC(=O)[C@]12Cc3cnn(-c4ccc(F)cc4)c3C=C1CCN(S(=O)(=O)c1ccc(N3CCOCC3)nc1)C2` [Example 48, (R)-1-(4-Fluorophenyl)-6-(6-morpholin-4-yl-pyridine-3-sulfonyl]-1,4,5,6,7,8-hexahydro-1,2,6-triaza-cyclopenta[b]naphthalene-4a-carboxylic acid ethyl ester]: the results for the Ki in experiment [1] and in experiment [2] were 0.5 to 1 nM and 10 to 50 nM, respectively.
`CC(C)OC(=O)[C@]12Cc3cnn(-c4ccc(F)cc4)c3C=C1CCN(S(=O)(=O)c1ccc(N3CCOCC3)nc1)C2` [Example 49, (R)-1-(4-Fluorophenyl)-6-(6-morpholin-4-yl-pyridine-3-sulfonyl]-1,4,5,6,7,8-hexahydro-1,2,6-triaza-cyclopenta[b]naphthalene-4a-carboxylic acid isopropyl ester]: the Ki in experiment [1] was below 0.5 nM; in experiment [2], 10 to 50 nM.

Values taken from patent US8598154B2 (Corcept Therapeutics, Inc., priority 2010, dated 2013).
